# Assay results taken from patent US20220411422A1, “ERBB RECEPTOR INHIBITORS” (Dizal (Jiangsu) Pharmaceutical Co., Ltd., priority 2018, published 2022).
# How the values were obtained:
# BT474 cells = test: BT474 anti-proliferation assay, MTS; assay type: cell-based; settings: Homo sapiens, BT-474, 72 h, read-out: HER2WT Amplification BT474 GI50
# Experimental: (§1) A compound's activity of selective inhibition for HER2 wild type amplification can be evaluated with BT474 cell line (ATCC® HTB-20™). The cell line expressed phosphorylated HER2 protein and its proliferation depended on the amplified gene, which could be used for in vitro PD and anti-proliferation assays.
# The anti-proliferation activity of compounds were determined as following procedure: The BT474 cells were sorted in 384 well plates with the DMEM medium containing 10% FBS and […] overnight and then dosed with tested compounds at a series of concentrations (30 μM, 10 μM, 3 μM, 1 μM, 0.3 μM, 0.1 μM, 0.03 μM, 0.01 μM, 0.001 μM) on next day. Meanwhile, another cells plate was prepared for measuring G0 value on next day. The dosed plates were incubate for 72 h at 37° C. with 5% CO2 and the number of viable cells in each well of G0 or dosed plates were measured by MTS (CellTiter 96® AQueous One Solution Cell Proliferation Assay, Promega) endpoint. This assay is a colorimetric method for determining the number viable cells in the proliferation assay. Detection reagents (5 μl) was dispensed into per well, and the plates were incubated for 2 hrs at room temperature. Then, absorbance at 490 nm and 650 nm (reference wavelength) in each well was measured using the safile II. (Tecan). […]
# pHER2 = target: T1, pHER2 (Homo sapiens, UniProt P04626); test: pHER2 cellular activity in BT474c1 cell line; assay type: cell-based
# T1 construct: pHER2 in cells expressing HER2; endogenous in cells; host or cells: BT474c1
# T1 sequence (P04626 23-1255): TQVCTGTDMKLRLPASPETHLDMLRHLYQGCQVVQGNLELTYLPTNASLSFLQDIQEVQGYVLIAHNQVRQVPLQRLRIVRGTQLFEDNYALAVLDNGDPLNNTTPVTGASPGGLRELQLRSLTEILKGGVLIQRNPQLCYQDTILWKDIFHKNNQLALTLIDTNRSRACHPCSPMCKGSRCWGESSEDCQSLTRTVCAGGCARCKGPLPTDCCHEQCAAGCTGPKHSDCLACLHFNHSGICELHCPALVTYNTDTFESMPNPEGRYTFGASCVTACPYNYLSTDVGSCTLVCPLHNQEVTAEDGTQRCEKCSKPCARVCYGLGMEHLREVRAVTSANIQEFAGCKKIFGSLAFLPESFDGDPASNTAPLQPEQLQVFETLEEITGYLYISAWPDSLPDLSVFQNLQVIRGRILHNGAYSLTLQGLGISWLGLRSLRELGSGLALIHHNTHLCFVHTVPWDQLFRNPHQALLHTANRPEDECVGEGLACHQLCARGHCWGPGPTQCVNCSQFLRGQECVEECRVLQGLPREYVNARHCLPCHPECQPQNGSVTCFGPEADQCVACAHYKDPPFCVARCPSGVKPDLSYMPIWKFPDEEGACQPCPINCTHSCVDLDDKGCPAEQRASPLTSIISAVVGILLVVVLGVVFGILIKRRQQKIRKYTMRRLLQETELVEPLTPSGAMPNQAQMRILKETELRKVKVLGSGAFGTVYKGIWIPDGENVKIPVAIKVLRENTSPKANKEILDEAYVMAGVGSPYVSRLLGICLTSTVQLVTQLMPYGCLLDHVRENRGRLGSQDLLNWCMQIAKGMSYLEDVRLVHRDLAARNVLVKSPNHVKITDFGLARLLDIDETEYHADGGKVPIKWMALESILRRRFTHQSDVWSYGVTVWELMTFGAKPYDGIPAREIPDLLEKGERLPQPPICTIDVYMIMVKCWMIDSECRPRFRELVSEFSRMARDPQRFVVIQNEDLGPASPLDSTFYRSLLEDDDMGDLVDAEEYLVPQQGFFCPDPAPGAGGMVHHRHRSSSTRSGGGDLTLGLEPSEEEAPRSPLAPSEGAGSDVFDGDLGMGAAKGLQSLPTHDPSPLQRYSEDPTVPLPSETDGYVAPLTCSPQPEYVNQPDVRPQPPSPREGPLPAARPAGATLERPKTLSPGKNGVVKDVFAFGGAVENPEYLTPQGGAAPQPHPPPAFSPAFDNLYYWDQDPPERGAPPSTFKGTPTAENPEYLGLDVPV
# Experimental: as §1
# The compounds' inhibition of target modulation were determined as follows: BT474 cells were sorted in 96 well plates (20000 cells/well) with the DMEM medium containing 10% FBS overnight and then treated with tested compounds at a series of concentrations (3 μM, 0.3 μM, 0.1 μM, 0.03 μM, 0.01 μM, 0.003 μM, 0.001 μM, 0.0001 μM). The plates were incubated for 4 h at 37° C. with 5% CO2 and then the HER2 (Y1248) phosphorylation level of cells in each well were measured with MSD Kit (Phospho-ErbB2 (Tyr1248) Assay Whole Cell Lysate Kit: Cat #K151CLD-3). The assay is a electrochemiluminescent method (MESO SCALE DISCOVERY) for determining both phosphorylated and total HER2 of cells with an MSD SECTOR® Imager and then the ratio of p-HER2/total HER2 can be generated by the machine. The percentage of inhibition was got from formula: % inhibition=100×[1−(ratio of sample well−ratio of Min ctrl well)/(ratio of Max−Ratio of Min ctrl well)]. The IC50 values were further calculated as the compounds concentration required for 50% inhibition in best-fit curves using Prism GraphPad 7.0 or Microsoft Xlfit software.
# [1] = system: Human Pgp/BCRP transporter; test: Human Pgp/BCRP transporter substrate assessment; assay type: in vitro ADME
# pHER2 in tumor tissue = target: T2, pHER2 in tumor tissue (Homo sapiens, UniProt P04626); test: PK/PD relationship in BT474cl SC model; assay type: in vivo, mouse
# T2 construct: The SC, BM and LM models with HER2 overexpression; from tissue; host or cells: BT474cl subcutaneous xenograft tumour in mice
# T2 sequence (P04626 23-1255): as above
# Experimental: The SC, BM and LM models with HER2 overexpression were treated with the Compound 6 at dosages of 25 mg/kg, 50 mg/kg, 100 mg/kg and 150 mg/kg. […] Moreover, the Compound 6 at dosages of 6.25 mg/kg, Capecitabine (400 mg/kg), T-DM1 (15 mg/kg), Compound 6 (6.25 mg/kg) in combination with Capecitabine (400 mg/kg) or T-DM1 (15 mg/kg) were used to treat the SC, and BM models with HER2 overexpression to check the tumor regression effect of Compound 6 in combination with other anti-cancer agent. […] Moreover, the PK and PD of Compound 6 in BT474cl SC model were tested.
# [2] = Clinical plasma and CSF PK in HER2+ MBC patients; assay type: in vivo, human
# Experimental: The plasma concentration of Compound 6 at the dosage of 50 to 200 mg following single dose or multiple doses were tested. […] In patients with BM, averaged Kpuu,CSF was around 1.82 and 0.78 for Compound 6 and its active metabolite Compound 16, respectively.
smiles,measurement,setting,value
"COc1cc(O[C@H]2CCN(C)CC2(F)F)c2c(Nc3ccc(Oc4ccn5ncnc5c4)c(C)c3)ncnc2c1 (single isomer, unassigned) [Compound 6]",GI50,BT474 cells,~20 nM
same,selectivity between pHER2 in cells expressing HER2 and pEGFR in cells expressing wild type EGFR,pHER2,over 300 fold
same,IC50,pHER2; BT474c1 cell line,4.4 nM
same,Human Pgp/BCRP transporter substrate,[1],No
same,relationship between plasma concentration and pHER2 inhibition in tumor tissue,pHER2 in tumor tissue,positive correlation
same,Kp uu,"[2]; human, CSF, oral, patients with BM, read-out: averaged Kpuu,CSF",~1.82
same,half-life,"[2]; human, plasma, patients, single oral dose, read-out: terminal half-life (converted)",~18 h
same,accumulation,"[2]; patients, 15-day repeat dosing",Around 2 fold
same,drug exposure versus dose,"[2]; patients, 50 to 200 mg",increased in a dose proportional manner
same,free trough concentration versus pHER2 IC50 of BT474cl cells,"[2]; patients, doses ≥100 mg bid",above pHER2 IC50 of BT474cl cells
